From patent publication US20250082656A1, “DOSAGE REGIMENS FOR TREATMENT OF DENGUE INFECTION” (Atea Pharmaceuticals, Inc., priority 2022, published 2025)

Assays:
[1] = test system: West Nile (WNV); test: microbe, parasite or virus in culture; format: cell-based; conditions: Kern 515, WNo2, Huh-7, VYR assay
[2] = test system: DENV-1; test: Antiviral assay with FC read-out, DENV-1; format: cell-based; conditions: Dengue virus, DENV1; DENV-1 WP74, Huh-7, FC read-out
[3] = test system: DENV-4; test: Antiviral assay with FC read-out, DENV-4; format: cell-based; conditions: Dengue virus, DENV4; DENV-4 TVP-360, Huh-7, FC read-out
[4] = test system: Chikungunya; test: Antiviral specificity panel, Chikungunya; format: cell-based; conditions: Chikungunya virus; RNA virus, Huh-7
[5] = test system: Adenovirus; test: Antiviral specificity panel, Adenovirus; format: cell-based; conditions: unidentified adenovirus; DNA virus, Vero
[6] = test system: Herpes simplex-1; test: Antiviral specificity panel, Herpes simplex-1; format: cell-based; conditions: DNA virus, Vero
[7] = test system: Dengue serotype 3; test: In vitro antiviral potency, summary over strains, Dengue serotype 3; format: cell-based; conditions: Dengue virus
[8] = test system: Human PBMC; conditions: Table 1A, human PBMC without virus; highest concentration tested
[9] = in vitro; conditions: hamster
[10] = clinical; conditions: both, human, in vivo, steady-state, human plasma, mean±SD; for AUC: AUCtau
[11] = test system: DENV-2; test: microbe, parasite or virus in culture; conditions: Dengue virus, DENV2, Huh-7
[12] = In vivo formation of AT-9010 in PBMCs, monkeys; design: species or system cynomolgus monkeys; conditions: single oral Compound 2 equivalent to 55 mg/kg Compound 1, 12 h
Procedure: Monkeys were given an oral dose of Compound 2 (AT-752) equivalent to Compound 1 (AT-281) at 55 mg/kg and blood collected at 12, 24 and 48 h. […] Mouse PBMCs were pooled from 3 animals per time point; Rat and monkey data expressed as mean+/−SD (n=2-3 per time point). […] The experimental procedure is provided in Example 15.
Male non-naïve cynomolgus monkeys (Hainan Jingang Laboratory Animal Co. Ltd., China), at least 2 kg body weight, were individually housed during the study in stainless steel mesh cages, provided ad libitum access to RO water, fed twice daily (except on the day of dosing when they were fed once) with ˜60 g Certified Monkey Diet each feed (Beijing Vital Keao Feed Co., Ltd., Beijing, China) and given daily treats of fresh fruit. They (n=5) were administered a dose of Compound 2 (AT-752) at 300 mg/kg in 40% PEG400, 10% solutol HS15, 50% 100 mM citrate buffer, pH 4.5 (v/v) by oral gavage, and blood samples (˜0.5 mL) were collected at 1, 2, 4, 8, 12 and 24 h post dose. Plasma was separated at each time point for pharmacokinetics, and stored at −70° C. […]
Pharmacokinetic measurements for FIGS. 11, 12, 13, 14, and 15 were analyzed using LC-MS/MS according to the protocol described herein. […]

[13] = biological target: human cellular DNA-dependent DNA polymerase γ (Homo sapiens, UniProt P54098); conditions: previously shown (Good et al.); read-out: estimated IC50; cited from earlier work
[14] = biological target: DENV3 NS5 (Dengue virus type 3, UniProt Q6YMS4); test: Thermal shift assay, DENV3 NS5; conditions: read-out: ΔTM
[15] = test system: DENV1 RdRp domain; test: Thermal shift assay, DENV1 RdRp domain; conditions: RdRp domain DENV1, 100 μM compound

Chain of human cellular DNA-dependent DNA polymerase γ (P54098 whole entry): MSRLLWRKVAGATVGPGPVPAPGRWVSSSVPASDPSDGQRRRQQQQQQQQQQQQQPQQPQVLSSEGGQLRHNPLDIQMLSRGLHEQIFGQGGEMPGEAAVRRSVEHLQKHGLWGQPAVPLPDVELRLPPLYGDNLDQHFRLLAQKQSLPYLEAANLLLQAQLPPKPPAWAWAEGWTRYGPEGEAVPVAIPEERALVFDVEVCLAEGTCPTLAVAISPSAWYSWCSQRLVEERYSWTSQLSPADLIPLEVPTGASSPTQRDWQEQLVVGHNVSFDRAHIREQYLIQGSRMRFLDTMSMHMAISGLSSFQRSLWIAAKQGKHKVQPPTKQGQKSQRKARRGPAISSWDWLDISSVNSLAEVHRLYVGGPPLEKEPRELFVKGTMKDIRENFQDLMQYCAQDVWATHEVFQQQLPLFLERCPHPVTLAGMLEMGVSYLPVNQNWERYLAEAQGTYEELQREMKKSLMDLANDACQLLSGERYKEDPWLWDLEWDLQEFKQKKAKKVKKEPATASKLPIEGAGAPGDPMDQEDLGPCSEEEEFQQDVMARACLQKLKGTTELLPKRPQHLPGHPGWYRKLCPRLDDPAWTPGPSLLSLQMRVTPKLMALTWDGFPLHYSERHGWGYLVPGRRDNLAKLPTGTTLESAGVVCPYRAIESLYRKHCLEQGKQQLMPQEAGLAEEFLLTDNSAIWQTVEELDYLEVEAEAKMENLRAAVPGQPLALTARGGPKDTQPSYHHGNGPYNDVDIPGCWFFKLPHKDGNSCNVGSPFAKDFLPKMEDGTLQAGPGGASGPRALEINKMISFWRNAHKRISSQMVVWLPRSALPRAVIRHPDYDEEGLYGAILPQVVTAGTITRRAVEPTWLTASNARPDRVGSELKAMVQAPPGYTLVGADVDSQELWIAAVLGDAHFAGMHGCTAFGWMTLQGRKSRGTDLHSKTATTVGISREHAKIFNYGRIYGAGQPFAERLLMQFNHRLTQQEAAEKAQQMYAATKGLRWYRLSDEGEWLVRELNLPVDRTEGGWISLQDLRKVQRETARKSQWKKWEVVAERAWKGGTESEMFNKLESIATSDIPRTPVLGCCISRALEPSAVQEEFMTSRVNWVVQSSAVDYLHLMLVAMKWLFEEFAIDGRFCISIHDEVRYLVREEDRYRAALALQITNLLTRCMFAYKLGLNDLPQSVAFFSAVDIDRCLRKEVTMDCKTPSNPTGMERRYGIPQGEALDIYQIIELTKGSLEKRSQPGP
Chain of DENV3 NS5 (Q6YMS4 2491-3390): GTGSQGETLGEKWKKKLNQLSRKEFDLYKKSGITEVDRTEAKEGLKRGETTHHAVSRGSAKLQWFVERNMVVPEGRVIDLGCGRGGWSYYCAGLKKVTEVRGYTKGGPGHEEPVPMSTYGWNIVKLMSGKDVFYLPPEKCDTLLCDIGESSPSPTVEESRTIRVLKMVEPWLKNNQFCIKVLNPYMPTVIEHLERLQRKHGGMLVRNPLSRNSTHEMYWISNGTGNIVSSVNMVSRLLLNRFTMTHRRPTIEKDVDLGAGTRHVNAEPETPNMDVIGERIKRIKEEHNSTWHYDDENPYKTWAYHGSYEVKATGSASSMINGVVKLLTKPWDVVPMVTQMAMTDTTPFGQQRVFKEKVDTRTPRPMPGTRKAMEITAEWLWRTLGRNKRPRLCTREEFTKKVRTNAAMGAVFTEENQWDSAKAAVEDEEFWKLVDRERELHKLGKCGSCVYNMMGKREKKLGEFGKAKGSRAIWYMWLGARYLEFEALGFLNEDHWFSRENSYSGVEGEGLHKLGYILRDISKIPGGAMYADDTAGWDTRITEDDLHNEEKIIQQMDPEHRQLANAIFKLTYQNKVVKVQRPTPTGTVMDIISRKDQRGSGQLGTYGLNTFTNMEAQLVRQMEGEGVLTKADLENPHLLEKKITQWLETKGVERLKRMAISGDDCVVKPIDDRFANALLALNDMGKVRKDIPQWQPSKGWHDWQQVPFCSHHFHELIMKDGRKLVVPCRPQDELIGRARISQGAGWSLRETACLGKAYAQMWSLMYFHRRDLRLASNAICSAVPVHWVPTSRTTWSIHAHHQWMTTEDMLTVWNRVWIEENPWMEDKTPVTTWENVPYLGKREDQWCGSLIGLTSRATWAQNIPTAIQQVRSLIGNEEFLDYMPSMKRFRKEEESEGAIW

| Structure (SMILES) | EC90 [1] [nM] | EC50 [2] [nM] | EC50 [3] [nM] | EC50 [4] [nM] | EC50 [5] [nM] | EC50 [6] [nM] | EC50 [7] [nM] | CC50 [8] [nM] | CC50 [9] [nM] | AUC ([10]; 750 mg, Compound 2 750 mg BID) [ng·h/mL] | AUC ([10]; 750 mg, Compound 2 750 mg TID) [ng·h/mL] | Cmax ([10]; 750 mg, Compound 2 750 mg BID) [ng/mL] | Cmax ([10]; 750 mg, Compound 2 750 mg TID) [ng/mL] | AUC ([10]; 1000 mg, Compound 2 1000 mg QD) [ng·h/mL] | Cmax ([10]; 1000 mg, Compound 2 1000 mg QD) [ng/mL] | EC50 [11] [nM] | concentration of AT-9010 in PBMCs [12] [pmol/10^6 cells] | IC50 [13] [nM] | ΔTm at 100 µM [14] [°C] | ΔTM [15] [°C] |
| --- | --- | --- | --- | --- | --- | --- | --- | --- | --- | --- | --- | --- | --- | --- | --- | --- | --- | --- | --- | --- |
| CNc1nc(N)nc2c1ncn2[C@@H]1O[C@H](CO[P@](=O)(N[C@@H](C)C(=O)OC(C)C)Oc2ccccc2)[C@@H](O)[C@@]1(C)F [Compound 1, isopropyl ((R)-(((2R,3R,4R,5R)-5-(2-amino-6-(methylamino)-9H-purin-9-yl)-4-fluoro-3-hydroxy-4-methyltetrahydrofuran-2-yl)methoxy)(phenoxy)phosphoryl)-L-alaninate] | 430 | 150 | 1190 | 54200 | > 100000 | > 100000 | < 1500 | > 85000 | > 170000 | 2610 ± 640 | 2540 ± 572 | 3490 ± 1280 | 3010 ± 754 | 3090 ± 1530 | 3810 ± 1670 | 300 |  |  |  |  |
| C[C@@]1(F)[C@H](O)[C@@H](COP(=O)(O)OP(=O)(O)OP(=O)(O)O)O[C@H]1n1cnc2c(=O)[nH]c(N)nc21 [Compound 5] |  |  |  |  |  |  |  |  |  |  |  |  |  |  |  |  | 0.070±0.046 | > 100000 | 5 ± 0.1 | 5.6±0.1 |
